Measurements from ChEMBL document CHEMBL4417633, “Inhibitory polypeptides specific to WNT inhibitors” (2017).
Activity calls are given as the source filed them. The calls are words filed in the database; no cut-off is given here. Where a SMILES comes first, the peptide text is derived from it.

Tests used:
[1] = target: T1, Dickkopf WNT-signaling pathway inhibitor 1 (Rattus norvegicus) (UniProt A6I0Z0); assay: Inhibition of biotin-labeled rat recombinant DKK1 assessed as reduction in DKK1 interaction with LRP-6/Fc incubated overnight by chemiluminescence based Alpha-screen assay
T1 sequence (whole entry): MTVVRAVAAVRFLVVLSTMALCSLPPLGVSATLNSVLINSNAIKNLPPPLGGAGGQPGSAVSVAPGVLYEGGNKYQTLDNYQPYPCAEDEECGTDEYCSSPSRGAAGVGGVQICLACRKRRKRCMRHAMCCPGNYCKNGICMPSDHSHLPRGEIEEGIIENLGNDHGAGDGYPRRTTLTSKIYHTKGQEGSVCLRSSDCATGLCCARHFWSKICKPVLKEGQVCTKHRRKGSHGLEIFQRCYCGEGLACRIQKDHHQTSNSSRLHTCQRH

[2] = target: T2, Dickkopf-related protein 1 (Homo sapiens, UniProt O94907); assay: Inhibition of human DKK1 in MC3T3E1/TetON-Wnt1/STF-Luc#5 cells assessed as DKK1 neutralizing activity by Wnt1-induced TCF/LEF luciferase reporter gene assay
T2 sequence (O94907 whole entry): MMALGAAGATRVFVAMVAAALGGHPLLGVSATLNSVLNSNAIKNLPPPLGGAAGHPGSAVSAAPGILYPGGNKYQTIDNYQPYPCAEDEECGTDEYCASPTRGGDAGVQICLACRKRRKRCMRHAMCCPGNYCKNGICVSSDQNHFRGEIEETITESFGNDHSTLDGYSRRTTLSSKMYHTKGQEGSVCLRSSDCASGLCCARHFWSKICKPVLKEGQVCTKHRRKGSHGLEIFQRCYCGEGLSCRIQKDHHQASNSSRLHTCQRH

[3] = target: T3, Dickkopf-related protein 1 (Homo sapiens) (UniProt O94907); assay: Inhibition of biotin-labeled human recombinant DKK1 assessed as reduction in DKK1 interaction with LRP-6/Fc incubated overnight by chemiluminescence based Alpha-screen assay
T3 sequence (whole entry): T2 sequence (O94907 whole entry)

**Q.** What does the source list for `CSCC[C@H](NC(=O)[C@@H]1CCCN1C(=O)[C@H](Cc1ccc(O)cc1)NC(=O)[C@H](CS)NC(=O)[C@H](Cc1cnc[nH]1)NC(=O)[C@@H]1CCCN1C(=O)[C@H](Cc1cnc[nH]1)NC(=O)[C@H](Cc1ccc(O)cc1)NC(=O)[C@H](CCCNC(=N)N)NC(=O)[C@H](CS)NC(=O)[C@H](CCCCN)NC(=O)[C@H](Cc1ccccc1)NC(=O)[C@H](Cc1ccc(O)cc1)NC(=O)[C@H](CO)NC(=O)[C@H](C)NC(=O)[C@@H]1CCCN1C(=O)[C@@H](N)CS)C(=O)N[C@@H](CCC(=O)O)C(=O)N[C@@H](Cc1c[nH]c2ccccc12)C(=O)N[C@@H](CCCNC(=N)N)C(=O)N[C@@H](CS)C(=O)N[C@@H](CC(=O)O)C(=O)NCC(=O)N[C@@H](Cc1ccccc1)C(=O)N[C@@H](CO)C(=O)N[C@@H](CC(=O)O)C(=O)N[C@@H](CS)C(=O)N[C@H](C(=O)N[C@@H](CC(=O)O)C(=O)NCC(=O)N[C@@H](CO)C(=O)N[C@@H](CC(=O)O)C(=O)N[C@@H](CCC(=O)O)C(=O)N[C@@H](CCC(=O)O)C(=O)N[C@@H](C)C(=O)N[C@@H](CS)C(=O)NCC(=O)NCC(=O)NCC(=O)NCC(=O)O)C(C)C` (H-CPASYFKCRYHPHCYPMEWRCDGFSDCVDGSDEEACGGGG-OH)?
**A.** inhibition [1]: Active; IC50 [2]: 0.8 to 3 nM; inhibition [3]: Active

**Q.** With `CC[C@H](C)[C@H](NC(=O)[C@H](CS)NC(=O)[C@H](CC(=O)O)NC(=O)[C@@H]1CCCN1C(=O)[C@H](Cc1ccccc1)NC(=O)CNC(=O)[C@H](CC(=O)O)NC(=O)[C@H](CS)NC(=O)[C@H](CCCNC(=N)N)NC(=O)[C@H](Cc1c[nH]c2ccccc12)NC(=O)[C@H](CCC(=O)O)NC(=O)[C@H](CCSC)NC(=O)[C@@H]1CCCN1C(=O)[C@H](Cc1ccc(O)cc1)NC(=O)[C@H](CS)NC(=O)[C@H](Cc1cnc[nH]1)NC(=O)[C@@H]1CCCN1C(=O)[C@H](Cc1cnc[nH]1)NC(=O)[C@H](CC(N)=O)NC(=O)[C@H](CCCNC(=N)N)NC(=O)[C@H](CS)NC(=O)[C@H](CCC(N)=O)NC(=O)[C@H](Cc1ccccc1)NC(=O)[C@H](Cc1ccc(O)cc1)NC(=O)[C@H](CO)NC(=O)[C@@H](NC(=O)[C@@H]1CCCN1C(=O)[C@@H](N)CS)C(C)C)C(=O)N[C@@H](CC(=O)O)C(=O)NCC(=O)N[C@@H](CO)C(=O)N[C@@H](CC(=O)O)C(=O)N[C@@H](CCC(=O)O)C(=O)N[C@@H](CCC(=O)O)C(=O)NCC(=O)N[C@@H](CS)C(=O)NCC(=O)NCC(=O)NCC(=O)NCC(=O)O` (H-CPVSYFQCRNHPHCYPMEWRCDGFPDCIDGSDEEGCGGGG-OH) as the molecule, how does the inhibition [1] read?
**A.** Active

**Q.** What about the IC50 [2] of the same molecule?
**A.** 0.8 to 3 nM

**Q.** What about the inhibition [3] of the same molecule?
**A.** Active

**Q.** What does the source list for `CSCC[C@H](NC(=O)[C@@H]1CCCN1C(=O)[C@H](Cc1ccc(O)cc1)NC(=O)[C@H](CS)NC(=O)[C@H](Cc1cnc[nH]1)NC(=O)[C@@H]1CCCN1C(=O)[C@H](Cc1cnc[nH]1)NC(=O)[C@H](CC(N)=O)NC(=O)[C@H](CCCNC(=N)N)NC(=O)[C@H](CS)NC(=O)[C@H](CCC(N)=O)NC(=O)[C@H](Cc1ccccc1)NC(=O)[C@H](Cc1ccc(O)cc1)NC(=O)[C@H](CO)NC(=O)[C@H](CCC(=O)O)NC(=O)[C@@H]1CCCN1C(=O)[C@@H](N)CS)C(=O)N[C@@H](CCC(=O)O)C(=O)N[C@@H](Cc1c[nH]c2ccccc12)C(=O)N[C@@H](CCCNC(=N)N)C(=O)N[C@@H](CS)C(=O)N[C@@H](CC(=O)O)C(=O)NCC(=O)N[C@@H](Cc1ccccc1)C(=O)N1CCC[C@H]1C(=O)N[C@@H](CC(=O)O)C(=O)N[C@@H](CS)C(=O)N[C@H](C(=O)N[C@@H](CC(=O)O)C(=O)NCC(=O)N[C@@H](CO)C(=O)N[C@@H](CC(=O)O)C(=O)N[C@@H](CCC(=O)O)C(=O)N[C@@H](CC(C)C)C(=O)N[C@@H](CC(=O)O)C(=O)N[C@@H](CS)C(=O)NCC(=O)NCC(=O)NCC(=O)NCC(=O)O)C(C)C` (H-CPESYFQCRNHPHCYPMEWRCDGFPDCVDGSDELDCGGGG-OH)?
**A.** inhibition [1]: Active; IC50 [2]: 0.8 to 3 nM; inhibition [3]: Active

**Q.** Which inhibition [1] does the source give for `CC[C@H](C)[C@H](NC(=O)[C@H](CCC(=O)O)NC(=O)[C@H](CC(=O)O)NC(=O)[C@H](CO)NC(=O)[C@H](C)NC(=O)[C@H](CC(=O)O)NC(=O)[C@@H](NC(=O)[C@H](CS)NC(=O)[C@H](CC(=O)O)NC(=O)[C@@H]1CCCN1C(=O)[C@H](Cc1ccccc1)NC(=O)CNC(=O)[C@H](CC(=O)O)NC(=O)[C@H](CS)NC(=O)[C@H](CCCNC(=N)N)NC(=O)[C@H](Cc1c[nH]c2ccccc12)NC(=O)[C@H](CCC(=O)O)NC(=O)[C@H](CCSC)NC(=O)[C@@H]1CCCN1C(=O)[C@H](Cc1ccc(O)cc1)NC(=O)[C@H](CS)NC(=O)[C@H](Cc1cnc[nH]1)NC(=O)[C@@H]1CCCN1C(=O)[C@H](Cc1cnc[nH]1)NC(=O)[C@H](CC(N)=O)NC(=O)[C@H](CCCNC(=N)N)NC(=O)[C@H](CS)NC(=O)[C@H](CCC(N)=O)NC(=O)[C@H](Cc1ccccc1)NC(=O)[C@H](Cc1ccc(O)cc1)NC(=O)[C@H](CO)NC(=O)[C@@H](NC(=O)[C@@H]1CCCN1C(=O)[C@@H](N)CS)C(C)C)C(C)C)C(=O)NCC(=O)N[C@@H](CS)C(=O)NCC(=O)NCC(=O)NCC(=O)NCC(=O)O` (H-CPVSYFQCRNHPHCYPMEWRCDGFPDCVDASDEIGCGGGG-OH) here?
**A.** Active

**Q.** And the IC50 [2]?
**A.** 0.8 to 3 nM

**Q.** And the inhibition [3]?
**A.** Active

**Q.** Which inhibition [1] does the source give for `CSCC[C@H](NC(=O)[C@@H]1CCCN1C(=O)[C@H](Cc1ccc(O)cc1)NC(=O)[C@H](CS)NC(=O)[C@H](Cc1cnc[nH]1)NC(=O)[C@@H]1CCCN1C(=O)[C@H](Cc1cnc[nH]1)NC(=O)[C@H](CC(N)=O)NC(=O)[C@H](CCCNC(=N)N)NC(=O)[C@H](CS)NC(=O)[C@H](CCC(N)=O)NC(=O)[C@H](Cc1ccccc1)NC(=O)[C@H](Cc1ccc(O)cc1)NC(=O)[C@H](CO)NC(=O)[C@H](CCC(=O)O)NC(=O)[C@@H]1CCCN1C(=O)[C@@H](N)CS)C(=O)N[C@@H](CCC(=O)O)C(=O)N[C@@H](Cc1c[nH]c2ccccc12)C(=O)N[C@@H](CCCNC(=N)N)C(=O)N[C@@H](CS)C(=O)N[C@@H](CC(=O)O)C(=O)NCC(=O)N[C@@H](Cc1ccccc1)C(=O)N[C@@H](CCC(=O)O)C(=O)N[C@@H](CC(=O)O)C(=O)N[C@@H](CS)C(=O)N[C@H](C(=O)N[C@@H](CC(=O)O)C(=O)NCC(=O)N[C@@H](CO)C(=O)N[C@@H](CC(=O)O)C(=O)N[C@@H](CCC(=O)O)C(=O)N[C@@H](CC(C)C)C(=O)N[C@@H](CC(=O)O)C(=O)N[C@@H](CS)C(=O)NCC(=O)NCC(=O)NCC(=O)NCC(=O)O)C(C)C` (H-CPESYFQCRNHPHCYPMEWRCDGFEDCVDGSDELDCGGGG-OH) here?
**A.** Active

**Q.** What about the IC50 [2] of the same molecule?
**A.** 0.8 to 3 nM

**Q.** What about the inhibition [3] of the same molecule?
**A.** Active

**Q.** For `CSCC[C@H](NC(=O)[C@@H]1CCCN1C(=O)[C@H](Cc1ccc(O)cc1)NC(=O)[C@H](CS)NC(=O)[C@H](Cc1cnc[nH]1)NC(=O)[C@@H]1CCCN1C(=O)[C@H](Cc1cnc[nH]1)NC(=O)[C@H](CC(N)=O)NC(=O)[C@H](CCCNC(=N)N)NC(=O)[C@H](CS)NC(=O)[C@H](CCCNC(=N)N)NC(=O)[C@H](Cc1ccccc1)NC(=O)[C@H](Cc1ccc(O)cc1)NC(=O)[C@H](CO)NC(=O)[C@H](C)NC(=O)[C@@H]1CCCN1C(=O)[C@@H](N)CS)C(=O)N[C@@H](CCC(=O)O)C(=O)N[C@@H](Cc1c[nH]c2ccccc12)C(=O)N[C@@H](CCCNC(=N)N)C(=O)N[C@@H](CS)C(=O)N[C@@H](CC(=O)O)C(=O)NCC(=O)N[C@@H](Cc1ccccc1)C(=O)N[C@@H](CCC(=O)O)C(=O)N[C@@H](CC(=O)O)C(=O)N[C@@H](CS)C(=O)N[C@H](C(=O)N[C@@H](CC(=O)O)C(=O)NCC(=O)N[C@@H](CO)C(=O)N[C@@H](CC(=O)O)C(=O)N[C@@H](CCC(=O)O)C(=O)N[C@@H](CC(C)C)C(=O)N[C@@H](CC(=O)O)C(=O)N[C@@H](CS)C(=O)NCC(=O)NCC(=O)NCC(=O)NCC(=O)O)C(C)C` (H-CPASYFRCRNHPHCYPMEWRCDGFEDCVDGSDELDCGGGG-OH), which inhibition [1] is on record?
**A.** Active

**Q.** What about the IC50 [2] of the same molecule?
**A.** 0.8 to 3 nM

**Q.** And the inhibition [3]?
**A.** Active

**Q.** Which inhibition [1] does the source give for `CC[C@H](C)[C@H](NC(=O)[C@H](CS)NC(=O)[C@H](CC(=O)O)NC(=O)[C@@H]1CCCN1C(=O)[C@H](Cc1ccccc1)NC(=O)CNC(=O)[C@H](CC(=O)O)NC(=O)[C@H](CS)NC(=O)[C@H](CCCNC(=N)N)NC(=O)[C@H](Cc1c[nH]c2ccccc12)NC(=O)[C@H](CCC(=O)O)NC(=O)[C@H](CCSC)NC(=O)[C@@H]1CCCN1C(=O)[C@H](Cc1ccc(O)cc1)NC(=O)[C@H](CS)NC(=O)[C@H](Cc1cnc[nH]1)NC(=O)[C@@H]1CCCN1C(=O)[C@H](Cc1cnc[nH]1)NC(=O)[C@H](Cc1c[nH]c2ccccc12)NC(=O)[C@H](CCCNC(=N)N)NC(=O)[C@H](CS)NC(=O)[C@H](CCC(N)=O)NC(=O)[C@H](Cc1ccccc1)NC(=O)[C@H](Cc1ccc(O)cc1)NC(=O)[C@H](CO)NC(=O)[C@H](C)NC(=O)[C@@H]1CCCN1C(=O)[C@@H](N)CS)C(=O)N[C@@H](CC(=O)O)C(=O)NCC(=O)N[C@@H](CO)C(=O)N[C@@H](CC(=O)O)C(=O)N[C@@H](CCC(=O)O)C(=O)N[C@@H](CCC(=O)O)C(=O)N[C@@H](CO)C(=O)N[C@@H](CS)C(=O)NCC(=O)NCC(=O)NCC(=O)NCC(=O)O` (H-CPASYFQCRWHPHCYPMEWRCDGFPDCIDGSDEESCGGGG-OH) here?
**A.** Active

**Q.** What about the IC50 [2] of the same molecule?
**A.** 0.8 to 3 nM

**Q.** What about the inhibition [3] of the same molecule?
**A.** Active
